Laboratory results as given in publication PMC12977544, “Phenotypic high-throughput screening identifies modulators of gut microbial choline metabolism” (mBio, 2026).
pEC50: −log10 of the molar value. Values after ≈ are worked out from the molar mass of the structure shown.

Key:
[1] = tested on: choline-metabolizing gut bacteria (E. coli, P. mirabilis, C. sporogenes, A. hydrogenalis); assay: TMA inhibition across the panel of four choline-metabolizing gut bacteria; format: cell-based; conditions: for pEC50: read-out: EC50 values for TMA inhibition across the choline-metabolizing bacteria
Text: We then used secondary assays to prioritize scaffolds that had broad-spectrum TMA inhibitory activity against additional choline-metabolizing gut bacteria. For this, we used Clostridium sporogenes ATCC 15579, a human gut isolate that is able to efficiently ferment choline in addition to other carbon sources, as well as Anaerococcus hydrogenalis DSM 7454 and Proteus mirabilis ATCC 29906, human gut isolates previously identified to metabolize choline in vitro ([61]). In particular, E. coli MS 200-1 and C. sporogenes ATCC 15579 have been used in gnotobiotic studies to investigate the effects of bacterial choline metabolism on the host and microbiome ([46], [61], [62]). These strains are representative of taxa frequently detected in humans ([63]) and, together with E. coli, are representative of the major phyla and genera in which TMA producers have been detected across human gut isolates ([48]). Importantly, this group of strains included both gram-positive and gram-negative bacteria. Gram-negative bacteria have an additional outer membrane layer and associated efflux pumps ([29]), which typically decreases small molecule permeability compared to gram-positive bacteria. It also included bacteria with cut gene cluster architectures that differ in the number and types of microcompartment proteins encoded and in the size of the CutC enzyme ([48]). We hypothesized that testing the inhibitors against multiple choline-utilizing gut bacteria would increase the likelihood of identifying compounds with broad-spectrum activity.
Compounds were stored as 10 mM DMSO stocks at –20°C and diluted in DMSO to prepare varying concentrations of inhibitors for testing. Bacteria were grown anaerobically overnight in media supplemented with choline as described above. Cells were pelleted and resuspended in PBS, and d9-choline chloride was added to a final concentration of 1 mM. The final OD600 of the PBS cell resuspensions is as follows: 0.4 (E. coli), 0.15–0.2 (P. mirabilis), 0.2 (C. sporogenes), and 0.4 (A. hydrogenalis). The resuspended cells were added to 96-well plates containing inhibitors (final concentration of 1% DMSO, with final inhibitor concentrations ranging between 0 and 325 µM). The plates were sealed and incubated for 75 min (or 90 min for P. mirabilis) at 37°C. Following incubation, the plates were removed from the anaerobic chamber and analyzed immediately or kept at –20°C until LC–MS/MS analysis. Each inhibitor concentration was tested in triplicate. EC50 values were calculated with GraphPad Prism by fitting the log(inhibitor) vs response—Variable slope (four-parameter) model for non-linear regression.

[2] = tested on: E. coli MS 200-1; assay: Growth inhibition of E. coli cultures in choline- and glycerol-containing minimal media; format: cell-based, Escherichia coli MS 200-1; conditions: for Effect on growth of E. coli MS 200-1 in glycerol medium: glycerol NCE minimal medium
Method: To validate the potential hits from the HTS, we tested the 178 compounds for inhibition of growth of E. coli MS 200-1 in glycerol minimal media at 30 µg/mL, following up with those without activity. […]. We then determined EC50 values for inhibition of TMA production from choline by bacterial cultures incubated with [trimethyl-d9]choline in phosphate-buffered saline. Of the 178 compounds tested in both growth and TMA inhibition assays, 20 inhibited TMA generation by E. coli MS 200-1 without growth-inhibitory effects in glycerol minimal medium.
NCE media was adapted based on the “no carbon E” media as previously described ([14]), and contains 29 mM potassium phosphate monobasic, 29 mM potassium phosphate dibasic, 17 mM ammonium sodium phosphate dibasic, 40 mM sodium fumarate dibasic, 0.1% (wt/vol) casamino acids, and either 20 mM choline chloride or 3 g/L glycerol. This mixture was supplemented with 1 mM magnesium sulfate, 1% ATCC vitamin supplement, and 1% ATCC trace mineral supplement.

[3] = tested on: Anaerococcus hydrogenalis DSM 7454; assay: MIC in MEGA medium; format: cell-based; conditions: Anaerococcus hydrogenalis, DSM7454; anaerobic, 37°C, 24 h, up to 200 µM
Method: (§1) For TMA inhibition assays, E. coli and P. mirabilis were grown in NCE medium supplemented with 20 mM choline chloride, A. hydrogenalis was grown in MEGA medium supplemented with 3 mM choline chloride, and C. sporogenes was grown in BHI medium supplemented with 20 mM of choline chloride to induce expression of the cut gene cluster. For MIC assays, all bacteria strains were grown in MEGA medium.

[4] = tested on: Bacteroides caccae ATCC 43185; assay: MIC in MEGA medium; format: cell-based; conditions: Bacteroides caccae, ATCC43185; anaerobic, 37°C, 24 h, up to 200 µM; read-out: MIC in MEGA medium, B. caccae
Method: as §1

[5] = tested on: Bacteroides ovatus ATCC 8483; assay: MIC in MEGA medium; format: cell-based; conditions: Bacteroides ovatus, ATCC8483; anaerobic, 37°C, 24 h, up to 200 µM; read-out: MIC in MEGA medium, B. ovatus
Method: as §1

[6] = tested on: Bacteroides thetaiotaomicron VPI-5482; assay: MIC in MEGA medium; format: cell-based; conditions: Bacteroides thetaiotaomicron, VPI5482; anaerobic, 37°C, 24 h, up to 200 µM; read-out: MIC in MEGA medium, B. thetaiotaomicron
Method: as §1

[7] = tested on: Clostridium sporogenes ATCC 15579; assay: MIC in MEGA medium; format: cell-based; conditions: Clostridium sporogenes, ATCC15579; anaerobic, 37°C, 24 h, up to 200 µM
Method: as §1

[8] = tested on: Collinsella aerofaciens ATCC 25986; assay: MIC in MEGA medium; format: cell-based; conditions: Collinsella aerofaciens, ATCC25986; anaerobic, 37°C, 24 h, up to 200 µM
Method: as §1

[9] = tested on: Eubacterium rectale ATCC 33656; assay: MIC in MEGA medium; format: cell-based; conditions: Agathobacter rectalis, ATCC33656; anaerobic, 37°C, 24 h, up to 200 µM; read-out: MIC in MEGA medium, E. rectale
Method: as §1

[10] = tested on: Proteus mirabilis ATCC 29906; assay: MIC in MEGA medium; format: cell-based; conditions: Proteus mirabilis, ATCC29906; anaerobic, 37°C, 24 h, up to 200 µM; read-out: MIC in MEGA medium, P. mirabilis
Method: as §1

Compound | pEC50 [1] | Effect on growth of E. coli MS 200-1 in glycerol medium [2] | Inhibition of E. coli growth on choline ([2]; choline minimal medium, 7 h, 6: 125–500 µM, 42: 30–100 µM) | MIC [3] [µM] | MIC [4] [µM] | MIC [5] [µM] | MIC [6] [µM] | MIC [7] [µM] | MIC [8] [µM] | MIC [9] [µM] | MIC [10] [µM] | Fold more potent than 6 across the panel of bacteria ([1]; compared with compound 6) | Reduction of conversion of choline to TMA by bacteria in vitro ([1]; in vitro) [%]
Cc1ccc(-c2cc(C(=O)NCCCN3CCc4ccccc4C3)c(C)[nH]2)cc1C [Compound 5] | 4.48 to 4.92 | no impact on growth | – | – | – | – | – | – | – | – | – | – | –
Cc1ccc(-c2cc(C(=O)NCCCN3CCC(C)CC3)c(C)[nH]2)cc1C [Compound 6] | – | not observed in glycerol | dose-dependent | 200 (≈ 73.5 µg/mL) | > 200 | > 200 | > 200 | > 200 | > 200 | 200 (≈ 73.5 µg/mL) | > 200 | – | –
Cc1ccc(-c2cc(C(=O)NCCCCCN3CCCCCC3)c(C)[nH]2)cc1C [Compound 45] | 4.74 to 5.70 | – | – | > 200 | > 200 | > 200 | > 200 | > 200 | > 200 | > 200 | > 200 | 2–10 fold | > 80
